The test system of assay [1] is HeLa cervical adenocarcinoma cells. Briefly: MTT antiproliferative assay, HeLa. It counts as cell-based. The settings on record: Homo sapiens. As to the method:
(§1) Human T-cell leukemia cell line Jurkat (ATCC TIB-152, E6-1 clone) was cultured in RPMI-1640 (Invitrogen) supplemented with 10% FBS (Invitrogen), 100 mg/L penicillin G, 100 mg/L streptomycin, 1.0 mM sodium pyruvate, 1.5 g/L sodium bicarbonate, and 4.5 g/L glucose (all from Sigma). Human cervical cancer cell line HeLa (ATCC S3) was cultured in DMEM (Invitrogen) supplemented with 10% FBS, 100 mg/L penicillin G, and 100 mg/L streptomycin. MCF-7 (human mammary carcinoma) cells were cultured in DMEM supplemented with 1.0 mM sodium pyruvate, 1% GlutaMax™-1 (Invitrogen), 100 μg/mL penicillin, 100 μg/mL streptomycin, and 10% FBS. Human uterine sarcoma MES-SA and MES-SA/Dx5 cells were cultured in RPMI-1640 medium supplemented with 10% FBS, 100 mg/L penicillin G and 100 mg/L streptomycin. All cells were incubated at 37° C. in a humidified atmosphere with 5% CO2. The other cell lines were maintained in a similar fashion as previously described.
(§2) To evaluate antiproliferative properties of the compounds of Formula I, mitochondrial dehydrogenase activities were measured using the MTT assay. The cell lines were prepared by trypsinizing and seeding […] cells per well into microplates. All compounds were reconstituted in dimethyl sulfoxide (DMSO) at a concentration of either 100 mM or 25 mM prior to treatment. The cells were grown for 24 hrs before treatment at concentrations ranging from 0.004 to 100 microM and incubated for 48 hrs in 200 microL media. 20 microL of MTT reagent in serum free medium (5 mg/mL) was added to each well and incubated further for 2 hrs. Media was removed and the resulting formazan crystals were re-solubilized in 100 microL of DMSO and the optical density (OD) was measured using a Thermomax Molecular Device plate reader at a wavelength of 490 nm. The experiments were performed in quadruplicate and repeated at least twice for each compound per cell line. Cells treated with 0.1% DMSO were used as a negative control, while phenyl arsine oxide (PAO) was used as a positive killing control.
(§3) Human cancer cell lines were obtained from the American Type Culture Collection (ATCC, Manassas, Va., USA), the European Collection of Cell Culture (ECACC, Salisbury, UK) and the Deutsche Sammlung von Mikroorganismen and Zellkulturen (DSMZ, Braunschweig, Germany). Human cervical adenocarcinoma HeLa cells were cultured in DMEM supplemented with 10% fetal bovine serum (FBS). Human mammary carcinoma MCF-7 cells were cultured in RPMI supplemented with 10% FBS. The U87 and U373 cells were cultured in DMEM culture medium (Lonza code 12-136F, Vervier, Belgium), while the SKMEL-28 and A549 cells were cultured in RPMI culture medium (Lonza; code 12-115F) supplemented with 10% heat-inactivated FBS (Lonza, FBS South America code DE14-801F). […] All cell lines were cultured in T25 flasks, maintained and grown at 37° C., 95% humidity, 5% CO2.
(§4) To evaluate antiproliferative properties of the synthesized compounds, the MTT assay was used. The cell lines were assessed by trypsinizing each cell line and seeding 4×10^3 cells per well into 96-well plates. All compounds were dissolved in DMSO at a concentration of either 100 mM or 50 mM prior to cell treatment. The cells were grown for 24 h and then treated with compounds at concentrations ranging from 0.04 to 100 μM and incubated for 48 h in 200 μL media. 20 μL of MTT reagent in serum free medium (5 mg/mL) was added to each well and incubated further for 2 h. Media was removed, and the resulting formazan crystals were re-solubilized in 200 μL of DMSO. A490 was measured using a Thermomax Molecular Device plate reader. The experiments were performed in quadruplicate and repeated at least twice for each compound per cell line. Cells treated with 0.1% DMSO were used as a control, and 1 μM phenyl arsine oxide (PAO) was used as a positive killing control.

The subject of assay [2] is MCF-7 mammary gland adenocarcinoma cells. Briefly: MTT antiproliferative assay, MCF-7. It counts as cell-based. The settings on record: Homo sapiens. Here is the method: as §1, §2, §3, §4
For orientation: Tetrazolium dyes change colour on reduction, which living cells bring about.

Setting [3] is: Table 5, 48 h, MTT, ± SD, read-out: cell viability GI50, HeLa.
Setting [4] is: MCF7, Table 5, 48 h, MTT, ± SD, read-out: cell viability GI50, MCF-7.
Where [5] appears, read: Table 1, 48 h treatment, MTT, ± SD, read-out: GI50 in vitro Values, HeLa.
[6] abbreviates: MCF7, Table 1, 48 h treatment, MTT, ± SD, read-out: GI50 in vitro Values, MCF-7.

Where two headings read alike, the source gives them in different places. A value given as a limit tells only on which side of the number the result lay.

With `O=C(c1ccccc1)c1[nH]c2[nH]c(=O)[nH]c(=O)c2c1-c1ccccc1` [Compound 2], the GI50 in assay [1] (setting [3]) and in assay [2] (setting [4]) was more than 50000 nM in each case.

As to `O=C(c1ccccc1)c1[nH]c2[nH]c(-c3ccccc3)nc(=O)c2c1-c1ccccc1` [Compound 3, 6-Benzoyl-2-phenyl-5-phenyl-1H-pyrrolo[2,3-d]pyrimidin-4(7H)-one], the GI50 in assay [1] (setting [3]) and in assay [2] (setting [4]) was more than 50000 nM each time.

For `O=C(c1ccccc1)c1[nH]c2[nH]c(-c3cccnc3)nc(=O)c2c1-c1ccccc1` [Compound 4], the GI50 in assay [1] (setting [3]) and in assay [2] (setting [4]) was more than 50000 nM each time.

For the compound `CCOC(=O)c1nc(=O)c2c(-c3ccccc3)c(C(=O)c3ccccc3)[nH]c2[nH]1` [Compound 7], the GI50 in assay [1] (setting [3]) and in assay [2] (setting [4]) was more than 50000 nM throughout.

For the compound `CCOC(=O)CCc1nc(=O)c2c(-c3ccccc3)c(C(=O)c3ccccc3)[nH]c2[nH]1` [Compound 10, 6-Benzoyl-2-(2-ethoxycarbonylethyl)-5-phenyl-1H-pyrrolo[2,3-d]pyrimidin-4(7H)-one], the GI50 – broadly, the concentration at which growth is held to half of that of the control – in assay [1] (setting [3]) was found to be 780 ± 50 nM; in assay [2] (setting [4]), 930 ± 70 nM.

In the case of `CCCCc1nc(=O)c2c(-c3ccccc3)c(C(=O)c3ccccc3)[nH]c2[nH]1` [Compound 11, 6-Benzoyl-2-butyl-5-phenyl-1H-pyrrolo[2,3-d]pyrimidin-4(7H)-one], the GI50 in assay [1] (setting [3]) is 340 ± 10 nM; in assay [2] (setting [4]) it was 230 ± 10 nM.

Take `CCc1nc(=O)c2c(-c3ccccc3)c(C(=O)c3ccccc3)[nH]c2[nH]1` [Compound 12]: the results for the GI50 in assay [1] (setting [3]) and in assay [2] (setting [4]) were 920 ± 110 nM and 1100 ± 100 nM, respectively.

On to `O=C(c1ccccc1)c1[nH]c2[nH]c(CF)nc(=O)c2c1-c1ccccc1` [Compound 14], for which the GI50 in assay [1] (setting [3]) was determined as 3000 ± 200 nM; in assay [2] (setting [4]), 3200 ± 200 nM.

In the case of `O=C(c1ccccc1)c1[nH]c2[nH]c(C(F)F)nc(=O)c2c1-c1ccccc1` [Compound 15, 6-Benzoyl-2-(difluoromethyl)-5-phenyl-1H-pyrrolo[2,3-d]pyrimidin-4(7H)-one], the values for the GI50 in assay [1] (setting [3]) and in assay [2] (setting [4]) were 5100 ± 200 nM and 4200 ± 500 nM, respectively.

On to `O=C(c1ccccc1)c1[nH]c2[nH]c(C(F)(F)F)nc(=O)c2c1-c1ccccc1` [Compound 16, 6-Benzoyl-5-phenyl-2-(trifluoromethyl)-1H-pyrrolo[2,3-d]pyrimidin-4(7H)-one], for which the GI50 in assay [1] (setting [3]) turned out to be 21500 ± 400 nM; in assay [2] (setting [4]), 21100 ± 1100 nM.

For the compound `COc1ccc(C(=O)c2[nH]c3[nH]cnc(=O)c3c2-c2cc(Br)cc(Br)c2)cc1` [Rig10, 5-(3,5-Dibromophenyl)-6-(4-methoxybenzoyl)-1H-pyrrolo[2,3-d]pyrimidin-4(7H)-one], the GI50 in assay [1] (setting [5]) is 300 ± 70 nM; in assay [2] (setting [6]), 110 ± 35 nM.

Take `O=C(c1ccc(OCc2ccccc2)cc1)c1[nH]c2[nH]cnc(=O)c2c1-c1cc(Br)cc(Br)c1` [Rig11, 6-(4-(Benzyloxy)benzoyl)-5-(3,5-dibromophenyl)-1H-pyrrolo[2,3-d]pyrimidin-4(7H)-one]: the GI50 turned out to be 400 ± 10 nM in assay [1] (setting [5]) and 310 ± 10 nM in assay [2] (setting [6]).

On to `O=C(c1ccc(F)cc1)c1[nH]c2[nH]cnc(=O)c2c1-c1cc(Br)cc(Br)c1` [Rig13, 5-(3,5-Dibromophenyl)-6-(4-fluorobenzoyl)-1H-pyrrolo[2,3-d]pyrimidin-4(7H)-one], for which the GI50 in assay [1] (setting [5]) is 6000 ± 1000 nM; in assay [2] (setting [6]), 800 ± 10 nM.

Take `O=C(c1ccc(Br)cc1)c1[nH]c2[nH]cnc(=O)c2c1-c1cc(Br)cc(Br)c1` [Rig14, 6-(4-Bromobenzoyl)-5-(3,5-dibromophenyl)-1H-pyrrolo[2,3-d]pyrimidin-4(7H)-one]: the GI50 is 2000 ± 1000 nM in assay [1] (setting [5]) and 600 ± 100 nM in assay [2] (setting [6]).

Take `COc1ccc(C(=O)c2[nH]c3[nH]cnc(=O)c3c2-c2cc(OC)c(OC)c(OC)c2)cc1` [Rig19, 6-(4-Methoxybenzoyl)-5-(3,4,5-trimethoxyphenyl)-1H-pyrrolo[2,3-d]pyrimidin-4(7H)-one]: the GI50 in assay [1] (48 h, read-out: GI50 in vitro Values, HeLa) is more than 100000 nM; in assay [2] (MCF7, 48 h, read-out: GI50 in vitro Values, MCF-7) it was 7000 ± 1000 nM.

With `O=C(c1ccccc1)c1[nH]c2[nH]cnc(=O)c2c1-c1cccc(Br)n1` [Rig30, 6-Benzoyl-5-(6-bromopyridin-2-yl)-1H-pyrrolo[2,3-d]pyrimidin-4(7H)-one], the results for the GI50 in assay [1] (setting [5]) and in assay [2] (setting [6]) were 150 ± 50 nM and 135 ± 75 nM, respectively.

As for `COc1cc(-c2c(C(=O)c3ccccc3)[nH]c3[nH]cnc(=O)c23)cc(I)c1OC` [Rig31, 6-Benzoyl-5-(3-iodo-4,5-dimethoxyphenyl)-1H-pyrrolo[2,3-d]pyrimidin-4(7H)-one], the GI50 in assay [1] (setting [5]) came to 8000 ± 1000 nM; in assay [2] (setting [6]), 40000 ± 4000 nM.

As to `COc1cc(-c2c(C(=O)c3ccccc3)[nH]c3[nH]cnc(=O)c23)cc(Br)c1OC` [Rig32, 6-Benzoyl-5-(3-bromo-4,5-dimethoxyphenyl)-1H-pyrrolo[2,3-d]pyrimidin-4(7H)-one], the GI50 in assay [1] (setting [5]) turned out to be 7000 ± 1000 nM; in assay [2] (setting [6]), 10000 ± 5000 nM.

`O=C(c1ccccc1)c1[nH]c2[nH]cnc(=O)c2c1-c1cccc(Br)c1` [Rig33, 6-Benzoyl-5-(3-bromophenyl)-1H-pyrrolo[2,3-d]pyrimidin-4(7H)-one]: the GI50 in assay [1] (setting [5]) came to 130 ± 50 nM; in assay [2] (setting [6]) it was 60 ± 20 nM.

On to `O=C(c1ccccc1)c1[nH]c2[nH]cnc(=O)c2c1-c1cccc(Cl)c1` [Rig34, 6-Benzoyl-5-(3-chlorophenyl)-1H-pyrrolo[2,3-d]pyrimidin-4(7H)-one], for which the GI50 is 100 ± 70 nM in assay [1] (setting [5]) and 60 ± 20 nM in assay [2] (setting [6]).

On to `O=C(c1ccccc1)c1[nH]c2[nH]cnc(=O)c2c1-c1cccc(I)c1` [Rig36, 6-Benzoyl-5-(3-iodophenyl)-1H-pyrrolo[2,3-d]pyrimidin-4(7H)-one], for which the values for the GI50 in assay [1] (setting [5]) and in assay [2] (setting [6]) were 200 ± 100 nM and 150 ± 60 nM, respectively.

Regarding `O=C(c1ccccc1)c1[nH]c2[nH]cnc(=O)c2c1-c1c(Cl)cccc1Cl` [Rig40, 6-Benzoyl-5-(2,6-dichlorophenyl)-1H-pyrrolo[2,3-d]pyrimidin-4(7H)-one], the GI50 in assay [1] (setting [5]) was determined as 4880 ± 70 nM; in assay [2] (setting [6]), 2200 ± 300 nM.

Regarding `O=C(c1ccccc1)c1[nH]c2[nH]cnc(=O)c2c1-c1cccnc1` [Rig41, 6-Benzoyl-5-(pyridin-3-yl)-1H-pyrrolo[2,3-d]pyrimidin-4(7H)-one], the figures for the GI50 in assay [1] (setting [5]) and in assay [2] (setting [6]) were 888 ± 61 nM and 1260 ± 180 nM, respectively.

As to `O=C(c1ccccc1)c1[nH]c2[nH]cnc(=O)c2c1-c1cccc(O)c1` [Rig42, 6-Benzoyl-5-(3-hydroxyphenyl)-1H-pyrrolo[2,3-d]pyrimidin-4(7H)-one], the GI50 in assay [1] (setting [5]) was 860 ± 60 nM; in assay [2] (setting [6]) it was 1100 ± 120 nM.

`N#Cc1cccc(-c2c(C(=O)c3ccccc3)[nH]c3[nH]cnc(=O)c23)c1` [Rig43, 3-(6-Benzoyl-4-oxo-4,7-dihydro-1H-pyrrolo[2,3-d]pyrimidin-5-yl)benzonitrile]: the figures for the GI50 in assay [1] (setting [5]) and in assay [2] (setting [6]) were 187 ± 9 nM and 251 ± 17 nM, respectively.

In the case of `O=C(c1ccc(O)cc1)c1[nH]c2[nH]cnc(=O)c2c1-c1ccccc1` [Rig45, 6-(4-Hydroxybenzoyl)-5-phenyl-1H-pyrrolo[2,3-d]pyrimidin-4(7H)-one], the GI50 was 303 ± 5 nM in assay [1] (setting [5]) and 261 ± 50 nM in assay [2] (setting [6]).

The values above are taken from patent US9334280B2, “Synthetic rigidin analogues as anticancer agents, salts, solvates and prodrugs thereof, and method of producing same” (New Mexico Technical Research Foundation, priority 2012, dated 2016).
